The term melting point denotes the temperature, or range, at which the solid turns liquid. One may read the pIC50 as −log10 of the IC50, conventionally taken in molar units. Broadly, the inhibition is the share of the control response that was lost under treatment.

Each structure is given as a SMILES string. pIC50: −log10 of the molar value.

Series [1] deals with T1, human oxytocin receptor (Homo sapiens, UniProt P30559).
T1 construct: host or cells: CHO cells (pcDNA3.1 vector)
T1 sequence (P30559 1-389): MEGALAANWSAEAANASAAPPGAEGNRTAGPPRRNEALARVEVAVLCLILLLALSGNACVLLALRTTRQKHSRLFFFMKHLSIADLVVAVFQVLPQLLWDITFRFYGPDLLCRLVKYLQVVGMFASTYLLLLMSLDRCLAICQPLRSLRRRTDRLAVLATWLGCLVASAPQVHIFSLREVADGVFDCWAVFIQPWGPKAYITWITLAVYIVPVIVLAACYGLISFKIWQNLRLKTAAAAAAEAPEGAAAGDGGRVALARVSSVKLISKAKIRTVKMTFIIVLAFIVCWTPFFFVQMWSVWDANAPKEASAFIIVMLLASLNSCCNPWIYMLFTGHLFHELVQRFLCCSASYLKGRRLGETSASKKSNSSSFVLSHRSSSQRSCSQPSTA
Kind of series: Oxytocin binding in Chinese Hamster Ovary cell membranes expressing human oxytocin receptors. The note with it: CHO cell membranes, [3H]oxytocin; for pIC50: values in parentheses, read-out: OT (IC50); for inhibition at 0.1 µM: 100 nM, values without parentheses, read-out: OT % inhibition @ 100% nM.

The molecule `O=C(c1ccc(-c2cccc3ccccc23)cc1Cl)N1Cc2cccn2Cc2ccccc21` [Example 24, [2-Chloro-4-(naphthalen-1-yl)phenyl][10,11-dihydro-5H-pyrrolo[2,1-c][1,4]benzodiazepin-10-yl]methanone] yielded a melting point of 115 to 117.5 °C. Also, the pIC50 in series [1] is 8.10.
The like results for `COc1cc(C(=O)N2Cc3ccc(C(=O)N(C)CCN(C)C)n3Cc3ccccc32)ccc1-c1ccccc1C(F)(F)F` [Example 22, N-Methyl-[N-(2-dimethylamino)ethyl]-10-{[2-methoxy-2′-trifluoromethyl-[1,1′-biphenyl]-4-yl]carbonyl}-10,11-dihydro-5H-pyrrolo[2,1-c][1,4]benzodiazepine-3-carboxamide] were, in that order, 187 to 190 °C and 8.76.
Turning to `Cc1cc(C(=O)N2Cc3ccc(C(=O)N4CCN(CCCN(C)C)CC4)n3Cc3ccccc32)ccc1-c1ccccc1C(F)(F)F` [Example 4, [4-(3-Dimethylaminopropyl)-piperazin-1-yl]-[10-(2-methyl-2′-trifluoromethyl-[1,1′-biphenyl]-4-yl)carbonyl]-[10,11-dihydro-5H-pyrrolo[2,1-c][1,4]benzodiazepin-3-yl]-methanone], the melting point was 85 to 95 °C. The negative-log IC50 (pIC50) in series [1] was 8.05.
`O=C(c1ccc(-c2cccc3ccccc23)nc1)N1Cc2cccn2Cc2ccccc21` [Example 28, [6-(Naphthalen-1-yl)-pyridin-3-yl]-[10,11-dihydro-5H-pyrrolo[2,1-c][1,4]benzodiazepin-10-yl]methanone]: the melting point was in the range of 155 to 158 °C. Besides, the pIC50 in series [1] was 7.53.
`COc1cc(C(=O)N2Cc3ccc(C(=O)N(C)CCCN(C)C)n3Cc3ccccc32)ccc1-c1ccccc1C(F)(F)F` [Example 21, N-Methyl-[N-(3-dimethylamino)propyl]-10-{[2-methoxy-2′-trifluoromethyl-[1,1′-biphenyl]-4-yl]carbonyl}-10,11-dihydro-5H-pyrrolo[2,1-c][1,4]benzodiazepin-3-carboxamide] yielded a melting point of 140 to 142 °C. Also, the pIC50 in series [1] was 8.77.
The like results for `COc1cc(C(=O)N2Cc3ccc(C(=O)N4CCC[C@H]4CN4CCCC4)n3Cc3ccccc32)ccc1-c1ccccc1C(F)(F)F` [Example 20, {[10-(2-Methoxy)-2′-trifluoromethyl-[1,1′-biphenyl]-4-yl]carbonyl}-[(2S)-[(2-pyrrolidin-1-yl)methyl]pyrrolidin-1-yl]-10,11-dihydro-5H-pyrrolo[2,1-c][1,4]benzodiazepin-3-yl-methanone] were, in that order, 125 to 128 °C and 8.74.
`Cc1ccc(-c2ccc(C(=O)N3Cc4cccn4Cc4ccccc43)cc2)c2ccccc12` [Example 25, [4-(4-Methyl-naphthalen-1-yl)phenyl][10,11-dihydro-5H-pyrrolo[2,1-c][1,4]benzodiazepin-10-yl]methanone]: the melting point was 160 to 162 °C. Also, the pIC50 in series [1] was 7.25.
`COc1cc(-c2ccccc2C)c(Cl)cc1C(=O)N1Cc2ccc(C(=O)N3CCN(CCN(C)C)CC3)n2Cc2ccccc21` [Example 197, {10-[(6-Chloro-3-methoxy-2′-methyl[1,1′-biphenyl]-4-yl)carbonyl]-10,11-dihydro-5H-pyrrolo[2,1-c][1,4]benzodiazepin-3-yl}{4-[2-(dimethylamino)ethyl]-1-piperazinyl}methanone]: the pIC50 in series [1] is 8.27.
Regarding `COc1cc(C(=O)N2Cc3ccc(C(=O)N(C)CCCN(C)C)n3Cc3ccccc32)ccc1-c1ccccc1C` [Example 105, N-[3-(Dimethylamino)propyl]-10-[(2-methoxy-2′-methyl[1,1′-biphenyl]-4-yl)carbonyl]-N-methyl-10,11-dihydro-5H-pyrrolo[2,1-c][1,4]benzodiazepine-3-carboxamide], the inhibition at 0.1 µM in series [1] came out at 97%.
As to `COc1ccccc1-c1ccc(C(=O)N2Cc3ccc(C(=O)N4CCN(C)CC4)n3Cc3ccccc32)cc1` [Example 48, {10-[(2′-Methoxy[1,1′-biphenyl]-4-yl)carbonyl]-10,11-dihydro-5H-pyrrolo[2,1-c][1,4]benzodiazepin-3-yl}(4-methyl-1-piperazinyl)methanone], the pIC50 in series [1] is 8.17.
Same read-out and setting: for `COc1cccc(-c2cc(OC)c(C(=O)N3Cc4ccc(C(=O)N(C)CCCN(C)C)n4Cc4ccccc43)cc2Cl)c1` [Example 99, 10-[(6-Chloro-3,3′-dimethoxy[1,1′-biphenyl]-4-yl)carbonyl]-N-[3-(dimethylamino)propyl]-N-methyl-10,11-dihydro-5H-pyrrolo[2,1-c][1,4]benzodiazepine-3-carboxamide] the value was 8.69; for `COc1cc(-c2ccccc2C)ccc1C(=O)N1Cc2ccc(C(=O)N(C)CCCN(C)C)n2Cc2ccccc21` [Example 11, N-Methyl-N-[3-(dimethylamino)propyl]-10-[(3-methoxy-2′-methyl[1,1′-biphenyl]-4-yl)carbonyl]-10,11-dihydro-5H-pyrrolo[2,1-c][1,4]benzodiazepine-3-carboxamide], 8.46.
The molecule `COc1cc(C(=O)N2Cc3cccn3Cc3ccccc32)ccc1-n1c(C)ccc1C` [Example 27, [4-(2,5-Dimethyl-1-H-pyrrol-1-yl)-3-methoxy-phenyl][10,11-dihydro-5H-pyrrolo[2,1-c][1,4]benzodiazepin-10-yl]methanone] showed a melting point of 141 to 144 °C. The negative logarithm of the IC50 (pIC50) in series [1] was 7.74.
As for `COc1cc(-c2ccccc2C(F)(F)F)c(OC)cc1C(=O)N1Cc2cccn2Cc2ccccc21` [Example 32, 10-{[3,6-Dimethoxy-2′-trifluoromethyl-[1,1′-biphenyl]-4-yl]carbonyl}-10,11-dihydro-5H-pyrrolo[2,1-c][1,4]benzodiazepine], the pIC50 in series [1] is 6.73.
For the molecule `COc1ccccc1-c1ccc(C(=O)N2Cc3ccc(C(=O)N4CCN(CCCN(C)C)CC4)n3Cc3ccccc32)cc1` [Example 246, {4-[3-(Dimethylamino)propyl]-1-piperazinyl}{10-[(2′-methoxy[1,1′-biphenyl]-4-yl)carbonyl]-10,11-dihydro-5H-pyrrolo[2,1-c][1,4]benzodiazepin-3-yl}methanone], in series [1], the negative-log IC50 (pIC50) was 7.75.
On to `COc1ccccc1-c1ccc(C(=O)N2Cc3ccc(C(=O)N4CCC(N5CCCCC5)CC4)n3Cc3ccccc32)cc1` [Example 111, {10-[(2′-Methoxy[1,1′-biphenyl]-4-yl)carbonyl]-10,11-dihydro-5H-pyrrolo[2,1-c][1,4]benzodiazepin-3-yl}[4-(1-piperidinyl)-1-piperidinyl]methanone], for which, in series [1], the pIC50 is 8.17.
The same measure, in the same setting: to `Cc1cc(C(=O)N2Cc3ccc(C(=O)N4CC[C@@H](N(C)C)C4)n3Cc3ccccc32)ccc1-c1ccccc1C(F)(F)F` [Example 271, [(3R)-3-(Dimethylamino)pyrrolidinyl](10-{[2-methyl-2′-(trifluoromethyl)[1,1′-biphenyl]-4-yl]carbonyl}-10,11-dihydro-5H-pyrrolo[2,1-c][1,4]benzodiazepin-3-yl)methanone] belongs 8.20.
On to `CN(C)CCCNC(=O)c1ccc2n1Cc1ccccc1N(C(=O)c1ccc(-c3cccc4ccccc34)cc1Cl)C2` [Example 83, 10-[2-Chloro-4-(1-naphthyl)benzoyl]-N-[3-(dimethylamino)propyl]-10,11-dihydro-5H-pyrrolo[2,1-c][1,4]benzodiazepine-3-carboxamide], for which, in series [1], the inhibition at 0.1 µM came to 10%.

The record behind these values is patent publication US7109193B2, “Tricyclic diazepines tocolytic oxytocin receptor antagonists” (Wyeth, priority 2001, dated 2006).
